Legend:
[1] = biological target: T1, human D3 dopamine receptor (Homo sapiens (Human), UniProt P35462); experiment: Radioligand binding (125I-IABN competition), D3; details: for Ki: 125I-IABN competition, HEK cell membranes expressing human D3; for D2/D3 (D3 selectivity ratio, D2 Ki/D3 Ki): calculated D2 Ki/D3 Ki
Protocol: (§1) The affinities of the target compounds were determined using radioligand binding experiments. […] Competition curves were modeled for a single site. Data from competition dose-response curves were analyzed using Tablecurve program (Jandel). IC50 values were converted to equilibrium dissociation constants (Ki values) using the Cheng and Prusoff correction.

[2] = biological target: T2, D3R (Homo sapiens (Human), UniProt P35462); experiment: β-Arrestin Recruitment Assay, U2OS DRD3; type: cell-based; details: for IC50: antagonist vs EC80 8 nM PD128907, U2OS DRD3 cells, read-out: D3 IC50; for D2 IC50/D3 IC50: ratio of β-arrestin IC50 values
T2 sequence (P35462 whole entry): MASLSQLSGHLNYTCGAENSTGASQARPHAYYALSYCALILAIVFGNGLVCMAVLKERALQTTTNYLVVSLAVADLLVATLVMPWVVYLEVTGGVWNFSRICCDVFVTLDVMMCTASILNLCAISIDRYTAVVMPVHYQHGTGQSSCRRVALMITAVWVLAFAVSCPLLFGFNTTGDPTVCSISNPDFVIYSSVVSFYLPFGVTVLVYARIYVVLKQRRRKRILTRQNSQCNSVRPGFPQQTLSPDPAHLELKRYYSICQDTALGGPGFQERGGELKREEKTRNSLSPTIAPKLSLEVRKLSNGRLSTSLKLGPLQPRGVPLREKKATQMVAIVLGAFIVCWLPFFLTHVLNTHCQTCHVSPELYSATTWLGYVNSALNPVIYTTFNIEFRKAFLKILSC
Protocol: (§2) Antagonist potency of the compounds against agonist induced recruitment of β-arrestin by D3R and D2LR was measured using DiscoverRx PathHunter eXpress kits. […] After incubation at 37° C. for 90 min, the DiscoveRx detection reagent was added, the plates were incubated at room temperature for 60 min and the luminescence was measured on a Synergy 4 plate reader (BioTek). The data were plotted and the agonist EC80 values were calculated using GraphPad Prism software. For antagonist activity, the cells were plated as described above and treated with multiple concentrations (starting from 500 nM, half log dilution, 10 dose points) of the test compounds in Plating Reagent with 0.1% DMSO.

[3] = biological target: T1, human D3 dopamine receptor; experiment: Whole Cell Adenylyl Cyclase Assay, D3; type: cell-based; details: inhibition of forskolin (100 μM) stimulated cAMP, normalized to quinpirole; compound conc ≥10× Ki (per compound); mean ± S.E.M.
Protocol: (§3) The intrinsic activity of the compounds was evaluated by determining their ability to inhibit forskolin-dependent (100 μM) stimulation of adenylyl cyclase activity using a whole cell assay. A whole cell-cyclic AMP accumulation assay was performed with stably transfected HEK cells expressing human D2 or D3 dopamine receptors. This assay is an adaptation of an earlier published method (Su et al., Cyclic Nucleotide Res. 1976, 2, 257-285). Details regarding this method have been published (Chu, W. et al. Bioorg. Med. Chem. 2005, 13, 77-87; Taylor, M. et al. Synapse 2010, 64, 251-266). Confluent (60-80%) HEK cells transfected with recombinant D2-like dopamine receptors were grown in DMEM/10% fetal calf serum containing geneticin in […] flasks. The endogenous ATP pool is radioactively labeled by preincubating the cells in serum-free DMEM/25 mM Hepes medium containing 2 μCi/mL of [2,8-^3H]-adenine (20-Ci/mmol) in a 5% CO2 incubator at 37° C. for 75 min. The radioactive medium was removed by aspiration. Serum-free DMEM (5.6 mL) containing 25 mM HEPES, pH 7.4, and 0.1 mM of the phosphodiesterase inhibitor isobutylmethylxanthine was added to the flask. A […] aliquot of cells was removed and added to 50 μL of forskolin (100 μM) and 50 μL of test drug or quinpirole in DMEM-HEPES. The cells were incubated for 20 min at 37° C. (vortexing every 5 min). The reaction was terminated by the addition of 0.5 mL of 10% trichloroacetic acid (w/v) containing 1.0 mM unlabeled cyclic AMP as a recovery standard. Both the [^3H]-cyclic AMP and the [^3H]-ATP fractions were collected following separation using columns of Dowex AG-50W-X4 and alumina. The final yield of [^3H]-cyclic AMP is corrected for column recovery of unlabeled cyclic AMP determined spectrophotometrically (OD259). The results are reported as percent conversion of [^3H]-ATP into [^3H]-cyclic AMP. The values for the percent inhibition are reported as the actual percent of inhibition of the ^3H-cAMP accumulation relative to the assay performed in the absence of a test compound, minus basal activity. […] The percent maximum response is the value for the inhibition normalized to the value for the full agonist quinpirole.

[4] = biological target: D2LR (Homo sapiens (Human), UniProt P14416); experiment: β-Arrestin Recruitment Assay, CHO-K1 DRD2L; type: cell-based; details: antagonist vs EC80 6 nM Pergolide, CHO-K1 DRD2L cells; read-out: D2 IC50
D2LR, sequence (P14416 whole entry): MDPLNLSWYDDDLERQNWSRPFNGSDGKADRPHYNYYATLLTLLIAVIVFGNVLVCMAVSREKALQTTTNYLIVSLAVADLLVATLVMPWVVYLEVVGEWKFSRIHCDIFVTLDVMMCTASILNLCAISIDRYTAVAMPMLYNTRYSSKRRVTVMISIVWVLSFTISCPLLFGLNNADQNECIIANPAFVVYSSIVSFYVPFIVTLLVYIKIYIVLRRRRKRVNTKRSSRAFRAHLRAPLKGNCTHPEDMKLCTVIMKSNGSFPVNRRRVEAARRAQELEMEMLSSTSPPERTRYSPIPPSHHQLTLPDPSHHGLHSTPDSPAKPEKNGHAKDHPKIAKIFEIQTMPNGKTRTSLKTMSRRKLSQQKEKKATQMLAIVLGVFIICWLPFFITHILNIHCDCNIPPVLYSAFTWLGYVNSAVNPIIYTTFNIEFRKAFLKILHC
Protocol: as §2

[5] = biological target: human D2-long dopamine receptor (Homo sapiens (Human), UniProt P14416); experiment: Radioligand binding (125I-IABN competition), D2; details: HEK cell membranes expressing human D2-long
human D2-long dopamine receptor, sequence (P14416 whole entry): as above
Protocol: as §1

[6] = biological target: human D2 dopamine receptors (Homo sapiens (Human), UniProt P14416); experiment: Whole Cell Adenylyl Cyclase Assay, D2; type: cell-based; details: inhibition of forskolin (100 μM) stimulated cAMP, normalized to quinpirole; compound conc ≥10× Ki (per compound); mean ± S.E.M.
human D2 dopamine receptors, sequence (P14416 whole entry): as above
Protocol: as §3

[7] = biological target: T2, D3R; experiment: D3 Mitogenesis Functional Assay (3H-thymidine uptake, CHOp-D3 cells); type: cell-based; details: for EC50: CHOp-D3 cells, stimulation of mitogenesis, read-out: D3 Agonist EC50; for Emax at 10 µM: % maximum stimulation vs quinpirole (100%), read-out: D3 Agonist Emax; for D3 Antagonist Imax: inhibition of quinpirole stimulation of mitogenesis; for IC50: read-out: D3 Antagonist IC50
Protocol: (§4) These assays are based on ^3H-thymidine uptake by cells that are proliferating.
CHO cells expressing human D3 receptors (CHOp-D3 cells) were maintained in alpha-MEM with 10% fetal bovine serum (FBS, Atlas Biologicals), 0.05% pen-strep, and 200 μg/ml of G418. […] The cells are incubated at 37° C. in alpha-MEM with 10% FBS. After 48-72 hours, the cells are rinsed twice with serum-free alpha-MEM and incubated for 24 hours at 37° C. Serial dilutions of test compounds were made by the Biomek robotics system in serum-free alpha-MEM. In the functional assay for agonism, the medium is removed and replaced with 100 μL of test compound in serum-free alpha-MEM. In the antagonist assay, the serial dilution of the putative antagonist test compound was added in 90 μL (1.1× of final concentration) and 300 nM quinpirole (30 nM final) was added in 10 uL. After another 16-hour incubation at 37° C., 0.25 μCi of [^3H]thymidine in alpha-MEM supplemented with 10% FBS was added to each well and the plates were further incubated for 2 hours at 37° C. The cells were trypsinized by addition of 10× trypsin solution (1% trypsin in calcium-magnesium-free phosphate-buffered saline) and the plates were filtered and counted as usual. Quinpirole was run as an internal control and dopamine was included for comparative purposes. Butaclamol was run as the standard antagonist. Data were analyzed using GraphPAD Prism and agonist potency was expressed as EC50 values or % stimulation and antagonist potency was expressed as IC50 values. In these assays, based on the % maximum stimulation as compared to the standard agonist quinpirole (100%) the compounds were classified into following categories: ≧90% full agonist; 70-90% partial to full agonist; <70% partial agonist; 0-20% potential antagonist.

[8] = biological target: human D2 receptors (Homo sapiens (Human), UniProt P14416); experiment: D2 Mitogenesis Functional Assay (3H-thymidine uptake, CHOp-D2 cells); type: cell-based
human D2 receptors, sequence (P14416 whole entry): as above
Protocol: as §4
CHO cells expressing human D2 receptors (CHOp-D2 cells) were maintained in alpha-MEM with 10% FCS, 0.05% pen-strep, and 200 μg/mL of G418. […] The cells were incubated at 37° C. in alpha-MEM with 10% FCS. After 48-72 hours, the cells were rinsed twice with serum-free alpha-MEM and incubated for 24 hours at 37° C. Serial dilutions of test compounds were made by the Biomek robotics system in serum-free alpha-MEM. In the functional assay for agonism, the medium was removed and replaced with 100 μL of test compound in serum-free alpha-MEM. In the antagonist assay, the serial dilution of the putative antagonist test compound was added in 90 μL (1.1× of final concentration) and 300 nM quinpirole (30 nM final) was added in […]. After another 24-hour incubation at 37° C., 0.25 μCi of [^3H]thymidine in alpha-MEM supplemented with 10% FCS was added to each well and the plates were further incubated for 2 hours at 37° C. The cells were trypsinized by addition of 10× trypsin solution (1% trypsin in calcium-magnesium-free phosphate-buffered saline) and the plates were filtered and counted as usual. Quinpirole was run as an internal control and dopamine was included for comparative purposes. Butaclamol was run as the standard antagonist.

T1 sequence (P35462 whole entry): as the sequence (P35462 whole entry) above

SMILES	Ki [1] [nM]	D2/D3 (D3 selectivity ratio, D2 Ki/D3 Ki) [1]	IC50 [2] [nM]	D2 IC50/D3 IC50 [2]	D3 Cyclase % Inhibition Normalized [3] [%]	IC50 [4] [nM]	Ki [5] [nM]	D2 Cyclase % Inhibition Normalized [6] [%]	EC50 [7] [nM]	Emax at 10 µM [7] [%]	D3 Antagonist Imax [7] [%]	IC50 [7] [nM]	EC50 ([8]; CHOp-D2 cells, stimulation of mitogenesis, read-out: D2 Agonist EC50) [nM]	Emax at 10 µM ([8]; at 10 μM, % maximum stimulation vs quinpirole (100%), read-out: D2 Agonist Emax) [%]	D2 Antagonist Imax ([8]; at 10 μM, inhibition of quinpirole stimulation of mitogenesis) [% at 10 μM]	IC50 ([8]; read-out: D2 Antagonist IC50) [nM]
Cc1cc(N2CCN(CCCCNC(=O)N3CCN(c4ccccc4)CC3)CC2)nc(C(C)(C)C)n1 [Compound 5, N-(4-(4-(2-(tert-Butyl)-6-methylpyrimidin-4-yl)piperazin-1-yl)butyl)-4-phenylpiperazine-1-carboxamide]	2.7 ± 0.1	136	3.86 ± 2.51	97	73.4 ± 11.0	376 ± 31	366 ± 18	54.5 ± 4.5	–	–	–	–	–	–	–	–
CC(C)(C)c1nc(N2CCN(CCCCNC(=O)N3CCc4c([nH]c5ccccc45)C3)CC2)cc(C(F)(F)F)n1 [Compound 55]	3 ± 0.2	182	26.2 ± 10.2	>19	61.7 ± 6.4	> 500	536 ± 118	6.3 ± 4.3	–	–	–	–	–	–	–	–
CC(C)(C)c1nc(N2CCN(CCCCNC(=O)N3CCC(c4ccccc4)CC3)CC2)cc(C(F)(F)F)n1 [Compound 48, N-(4-(4-(2-(tert-Butyl)-6-(trifluoromethyl)pyrimidin-4-yl)piperazin-1-yl)butyl)-4-phenylpiperidine-1-carboxamide]	11 ± 2.4	147	28.1 ± 4.9	>18	64.3 ± 10.4	> 500	1620 ± 402	–	> 10000	< 5	81.2	2000 ± 480	–	–	–	–
O=C(NCCCCN1CCN(c2ccnc3ccccc23)CC1)C1CCC(c2ccccc2)CC1 (stereo not drawn) [Compound 104, 4-Phenyl-N-(4-(4-(quinolin-4-yl)piperazin-1-yl)butyl)cyclohexanecarboxamide]	35.3 ± 4.8	146	33.7 ± 14.3	>15	53.4 ± 13.0	> 500	5160 ± 822	–	–	–	–	–	–	–	–	–
CN(C)Cc1c(C(=O)NCCCCN2CCN(c3cc(C(F)(F)F)nc(C(C)(C)C)n3)CC2)nc2ccccn12 [Compound 120, N-(4-(4-(2-(tert-Butyl)-6-(trifluoromethyl)pyrimidin-4-yl)piperazin-1-yl)butyl)-3-((dimethylamino)methyl)imidazo[1,2-a]pyridine-2-carboxamide]	28.8 ± 6.1	10	7.2 ± 3.68	30	47.4 ± 4.4	217 ± 10	301	8.9 ± 5.0	–	–	–	–	–	–	–	–
CC(C)(C)c1nc(N2CCN(CCCCNC(=O)N3CCN(c4ccccc4)CC3)CC2)cc(C(F)(F)F)n1 [Compound 8, N-(4-(4-(2-(tert-Butyl)-6-(trifluoromethyl)pyrimidin-4-yl)piperazin-1-yl)butyl)-4-phenylpiperazine-1-carboxamide]	2.7 ± 0.7	174	6.15 ± 0.33	>81	60.7 ± 10.7	> 500	470 ± 34	−4.8 ± 4.1	> 10000	3	88.2	125 ± 37	> 10000	< 1	100	440 ± 160
COc1ccc2c(c1)CN(C(=O)NCCCCN1CCN(c3cc(C(F)(F)F)nc(C(C)(C)C)n3)CC1)C2 [Compound 40, N-(4-(4-(2-(tert-Butyl)-6-(trifluoromethyl)pyrimidin-4-yl)piperazin-1-yl)butyl)-5-methoxyisoindoline-2-carboxamide]	2.3 ± 0.5	432	0.8 ± 0.24	196	30.0 ± 7.9	157 ± 11	994 ± 106	−39.1 ± 12.5	–	–	–	–	–	–	–	–

From patent US9598387B2 (Southern Research Institute, priority 2012, dated 2017)
